Laboratory results from patent US20170137481A1, “Use of Cell-Permeable Peptide Inhibitors of the JNK Signal Transduction Pathway for the Treatment of Various Diseases” (Xigen Inflammation Ltd., priority 2014, published 2017).

Assays:
[1] = test system: gerbil model of transient global ischemia; conditions: cited from earlier work
[2] = test system: primary embryonic cultures and differentiated PC12 cells; conditions: after trophic withdrawal; cited from earlier work
[3] = test system: rat model of diabetic nephropathy; assay: STZ rat model of diabetic nephropathy, chronic administration; format: in vivo; conditions: XG-102 1, 2, 4 mg/kg iv weekly; Losartan 25 mg/kg po daily
Excerpt: Losartan has been used as a positive control. Seventy-four male Sprague-Dawley rats (200-250 g; including 4 spare animals) from Charles River (Margate, Kent) were used. […] The diet has been purchased from Research Diets, New Jersey, USA. […] Animals have been housed in pairs throughout the study. […] During the third week of habituation, a blood sample has been taken from the lateral tail vein in the freely fed state using a hand-held glucose meter (One Touch Ultra 2). Blood sampling began at approximately 09:00. […] About 40 animals have been assigned to Cohort A and the remaining 30 to Cohort B, balanced as far as possible for body weight, plasma glucose and food and water intake. […] In all groups, food and water intake have been determined twice weekly (on the day of iv dosing and on water refill days. Blood glucose has been determined monthly. Samples were collected as detailed previously by glucometer (One Touch Ultra2). Blood samples have been taken in the freely fed state (beginning at approx. 09:00). Animals have been dosed immediately afterwards by the respective route to a timed schedule. Subsequent to dosing, each animal has been placed in a metabolism cage with free access to food and water for a 24 h period. To reduce evaporation, the glass urine collectors have been placed in a polystyrene container (Sca-online, UK) which was filled with ice. […]

SMILES: N#CC(c1ccnc(NCCc2cccnc2)n1)c1nc2ccccc2s1 (stereo not drawn) [AS601245]
- delayed loss of hippocampal CA1 neurons [1]: significant protection against the delayed loss of hippocampal CA1 neurons

SMILES: CCSCc1ccc2c(c1)c1c3c(c4c5cc(CSCC)ccc5n5c4c1n2[C@H]1C[C@](O)(C(=O)OC)[C@]5(C)O1)CNC3=O [CEP-1347]
- neuronal survival [2]: promotes neuronal survival

SMILES: CCCCc1nc(Cl)c(CO)n1Cc1ccc(-c2ccccc2-c2nn[nH]n2)cc1 [Losartan]
- body weight versus vehicle-treated STZ rats [3]: significantly lower
